Measured values from ChEMBL document CHEMBL1201862, “PubChem BioAssay data set” (2004).
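Step 1: Grow cells in 96-well plates. Step 2: Expose to compound for 48 hours at 5 concentrations. Step 3: Interpolate endpoints linearly; if unreached, use highest concentration. GI50 = concentration required for 50% inhibition of growth.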 Active and inactive are the calls of the source. Cut-off read from the data, not from the text of the source: active = GI50 up to about 1.1 µM and inactive = higher.

Assays:
Experiment in all cases: DTP human tumour cell line panel, 48 h
[1] = system: 786-0
[2] = system: A498
[3] = system: A549
[4] = system: ACHN
[5] = system: CAKI-1
[6] = system: CCRF-CEM
[7] = system: COLO 205
[8] = system: DLD-1
[9] = system: DMS-273
[10] = system: EKVX
[11] = system: HCC 2998
[12] = system: HCT-116
[13] = system: HCT-15
[14] = system: HL-60
[15] = system: HOP-18
[16] = system: HOP-62
[17] = system: HOP-92
[18] = system: HT-29
[19] = system: IGROV-1
[20] = system: K562
[21] = system: KM-20L2
[22] = system: KM12
[23] = system: LOX IMVI
[24] = system: LXFL 529
[25] = system: M14
[26] = system: M19-MEL
[27] = system: MOLT-4
[28] = system: Malme-3M
[29] = system: NCI-H226
[30] = system: NCI-H23
[31] = system: NCI-H460
[32] = system: NCI-H522
[33] = system: OVCAR-3
[34] = system: OVCAR-4
[35] = system: OVCAR-5
[36] = system: OVCAR-8
[37] = system: RPMI-8226
[38] = system: RXF 393
[39] = system: SF-295
[40] = system: SF-539
[41] = system: SK-MEL-2
[42] = system: SK-MEL-5
[43] = system: SK-OV-3
[44] = system: SN12C
[45] = system: SNB-19
[46] = system: SNB-75
[47] = system: SNB-78
[48] = system: SW-620
[49] = system: TK-10
[50] = system: U-251
[51] = system: UACC-257
[52] = system: UACC-62
[53] = system: UO-31
[54] = system: DMS-114
[55] = system: SF-268
[56] = system: SK-MEL-28
[57] = system: XF498

## COC(=O)c1c(-c2cc(OC)c(OC)c(OC)c2)oc2ccccc2c1=O
[1]
  GI50: > 100 µM (inactive)
[2]
  GI50: > 100 µM (inactive)
[3]
  GI50: 83.8 µM (inactive)
[4]
  GI50: > 100 µM (inactive)
[5]
  GI50: 75.3 µM (inactive)
[6]
  GI50: 36.7 µM (inactive)
[7]
  GI50: 97.7 µM (inactive)
[8]
  GI50: 52 µM (inactive)
[9]
  GI50: 84.9 µM (inactive)
[10]
  GI50: > 100 µM (inactive)
[11]
  GI50: > 100 µM (inactive)
[12]
  GI50: 48.3 µM (inactive)
[13]
  GI50: 15.4 µM
[14]
  GI50: 36.7 µM (inactive)
[15]
  GI50: > 100 µM (inactive)
[16]
  GI50: > 100 µM (inactive)
[17]
  GI50: 96.6 µM (inactive)
[18]
  GI50: > 100 µM (inactive)
[19]
  GI50: > 100 µM (inactive)
[20]
  GI50: 42.8 µM (inactive)
[21]
  GI50: > 100 µM (inactive)
[22]
  GI50: > 100 µM (inactive)
[23]
  GI50: 37.4 µM (inactive)
[24]
  GI50: 63.4 µM (inactive)
[25]
  GI50: > 100 µM (inactive)
[26]
  GI50: > 100 µM (inactive)
[27]
  GI50: 70.1 µM (inactive)
[28]
  GI50: > 100 µM (inactive)
[29]
  GI50: > 100 µM (inactive)
[30]
  GI50: > 100 µM (inactive)
[31]
  GI50: 76.7 µM (inactive)
[32]
  GI50: 94 µM (inactive)
[33]
  GI50: 75.9 µM (inactive)
[34]
  GI50: 68.4 µM (inactive)
[35]
  GI50: > 100 µM (inactive)
[36]
  GI50: > 100 µM (inactive)
[37]
  GI50: 36.2 µM (inactive)
[38]
  GI50: 53.6 µM (inactive)
[39]
  GI50: > 100 µM (inactive)
[40]
  GI50: > 100 µM (inactive)
[41]
  GI50: > 100 µM (inactive)
[42]
  GI50: 59.7 µM (inactive)
[43]
  GI50: > 100 µM (inactive)
[44]
  GI50: > 100 µM (inactive)
[45]
  GI50: > 100 µM (inactive)
[46]
  GI50: 58.7 µM (inactive)
[47]
  GI50: > 100 µM (inactive)
[48]
  GI50: > 100 µM (inactive)
[49]
  GI50: 42.6 µM (inactive)
[50]
  GI50: 87.3 µM (inactive)
[51]
  GI50: > 100 µM (inactive)
[52]
  GI50: 68.4 µM (inactive)
[53]
  GI50: 66.4 µM (inactive)

## Cc1ccc(/N=N/C2S/C(=C(\C#N)c3nc4ccccc4[nH]3)N(c3ccccc3)C2=O)cc1 (stereo not given)
[1]
  GI50: 27.3 µM (inactive)
[2]
  GI50: > 100 µM (inactive)
[3]
  GI50: 88.1 µM (inactive)
[4]
  GI50: 34.1 µM (inactive)
[5]
  GI50: 67.1 µM (inactive)
[6]
  GI50: > 100 µM (inactive)
[7]
  GI50: > 100 µM (inactive)
[8]
  GI50: > 100 µM (inactive)
[54]
  GI50: 65.5 µM (inactive)
[9]
  GI50: > 100 µM (inactive)
[10]
  GI50: > 100 µM (inactive)
[12]
  GI50: 90.2 µM (inactive)
[13]
  GI50: > 100 µM
[14]
  GI50: > 100 µM (inactive)
[16]
  GI50: 30.1 µM (inactive)
[17]
  GI50: 37.3 µM (inactive)
[18]
  GI50: > 100 µM (inactive)
[19]
  GI50: 29.6 µM (inactive)
[20]
  GI50: 20.4 µM (inactive)
[21]
  GI50: > 100 µM (inactive)
[23]
  GI50: 19.9 µM (inactive)
[24]
  GI50: > 100 µM (inactive)
[25]
  GI50: 89.1 µM (inactive)
[26]
  GI50: > 100 µM (inactive)
[28]
  GI50: > 100 µM (inactive)
[29]
  GI50: > 100 µM (inactive)
[30]
  GI50: 86.7 µM (inactive)
[31]
  GI50: > 100 µM (inactive)
[32]
  GI50: > 100 µM (inactive)
[33]
  GI50: > 100 µM (inactive)
[34]
  GI50: 42.8 µM (inactive)
[35]
  GI50: 85.1 µM (inactive)
[36]
  GI50: 56.1 µM (inactive)
[38]
  GI50: 28.8 µM (inactive)
[55]
  GI50: > 100 µM (inactive)
[39]
  GI50: 42.6 µM (inactive)
[40]
  GI50: 43.6 µM (inactive)
[56]
  GI50: > 100 µM (inactive)
[41]
  GI50: > 100 µM (inactive)
[42]
  GI50: > 100 µM (inactive)
[43]
  GI50: > 100 µM (inactive)
[44]
  GI50: > 100 µM (inactive)
[45]
  GI50: 99.1 µM (inactive)
[46]
  GI50: 29.2 µM (inactive)
[47]
  GI50: > 100 µM (inactive)
[48]
  GI50: > 100 µM (inactive)
[49]
  GI50: 36.9 µM (inactive)
[50]
  GI50: 57.9 µM (inactive)
[51]
  GI50: 55 µM (inactive)
[52]
  GI50: > 100 µM (inactive)
[53]
  GI50: 39 µM (inactive)
[57]
  GI50: 30 µM (inactive)
